According to patent US20200281873A1, “Adamantane or Bicyclic Monoterpenoid Derivatives for Use in the Treatment of Leishmaniasis” (Commissariat a l'Energie Atomique et aux Energies …, priority 2017, published 2020):
Read-outs that look alike come from different tables or passages of the source.

Key:
[1] = system: L. infantum intramacrophagic amastigotes; experiment: L. donovani infantum/RAW 264.7 macrophage model (intramacrophagic amastigotes, SYBR Green I); format: cell-based, Leishmania donovani infantum; details: Leishmania infantum, Macrophage
Method: Protocol for Evaluation on the L. donovani infantum/RAW 264.7 Macrophage Model (Intramacrophagic Amastigotes)
Mouse macrophage cells RAW 264.7 (ATCC) were seeded into a 96-well microplate and maintained in DMEM medium (Applied Biosystems, France) supplemented with 10% heat-inactivated fetal bovine serum in a 5% CO2 incubator at 37° C. for 24 h. Then, the medium was replaced with 100 μL fresh medium containing a suspension of 10^5 L. infantum amastigotes and the incubation time was 16 h. Then, extracellular parasites were eliminated from the medium and 100 μL fresh medium containing compound in various concentrations were added for a 48 h-incubation. Parasite growth was determined by using SYBR® Green I (Life technology, Fisher Scientific, France), a dye with marked fluorescence enhancement upon contact with DNA. The cell lysis suspension was diluted 1:1 in lysis buffer (10 mM NaCl, 1 mM Tris HCl pH8, 2.5 mM EDTA pH 8, 0.05% SDS, 0.01 mg/mL proteinase K and 10×SYBR Green I). Incorporation of SYBR Green I in DNA amplification was measured using the Master epRealplex cycler® (Eppendorf, France) according to the following program to increase the SYBR green incorporation: 90° C. for 1 min, decrease in temperature from 90° C. to 10° C. for 5 min with reading the fluorescence at 10° C. for 1 min and a new reading at 10° C. for 2 min. The EC50 as the concentration inhibiting the parasite growth by 50% was calculated by nonlinear regression using icestimator website 1.2 version: http://www.antimalarial-icestimator.net/MethodIntro.htm.

[2] = system: L. donovani (MHOM/ET/67/HU3) amastigotes; experiment: In vivo antileishmanial evaluation, Leishmania donovani/Balb/c mouse model (liver parasite load); details: for % reduction of parasite burden in the liver / LDU ± SD (parasites in the liver): Balb/c mice
Method: Compounds VP343, VP370 were evaluated in vivo for their antileishmanial properties by oral and intravenous route on the Leishmania donovani/Balb/c mouse model, comparatively to miltefosine, used as reference drug, according to a previously described protocol (Balaraman et al., 2015). Six- to eight-week-old Balb/c mice (Élevages Janvier, Le Genest Saint Isle, France) were infected intravenously on day 1 with 10^7 L. donovani (MHOM/ET/67/HU3) amastigotes derived from the spleen of hamsters and randomly sorted into four groups of 10 mice and one group of 12 mice as infected controls but not treated. The treatment administered orally or intravenously, started one week post-infection, on day 8, and continued for 5 consecutive days. At day 15, all groups of mice were autopsied and livers and spleens were weighed. Parasite load in the liver was determined by counting the number of amastigotes/500 liver cells in Giemsa-stained impression smears prepared from the liver and applying Stauber's formula. Three researchers counted the slides independently and the results are expressed as the mean values±SD. The parasite burden of treated groups and controls were compared using Student's t-test or the Kruskal-Wallis nonparametric analysis of variance test for comparing two groups. Significance was established for a P value<0.05.

[3] = intravenous route, 10 mg/kg/day × 5

COc1ccc(Br)cc1CN(C)C12CC3CC(CC(C3)C1)C2 [VP343]
IC50 ([1]; Table II, 3 different experiments, SYBR Green I method, read-out: IC50 intramacrophagic): 0.04 µM | IC50 ([1]; cf. Table II, read-out: IC50 (intramacrophage amastigotes)): 0.04 µM | Activity in vivo by intravenous route (in words) ([2]; 10 mg/kg/day×5 intravenous, Dunn's multiple comparisons test): significantly active | % reduction of parasite burden in the liver [2, 3]: 42.4% | LDU ± SD (parasites in the liver) [2, 3]: 0.19 ± 0.09 ×10^8 | % reduction of parasite burden in the liver ([2]; oral route, 10 mg/kg/day × 5): 60.2% | LDU ± SD (parasites in the liver) ([2]; oral route, 10 mg/kg/day × 5, autopsy day 15): 0.49 ± 0.07 ×10^9 | % reduction of parasite burden in the liver ([2]; oral route, 20 mg/kg/day × 5): 70.8% | LDU ± SD (parasites in the liver) ([2]; oral route, 20 mg/kg/day × 5, autopsy day 15): 0.36 ± 0.08 ×10^9 | Activity in vivo by oral route (in words) ([2]; VP343 and VP370 at 20 mg/kg/day×5, VP343 also at 10 mg/kg/day×5, Tukey's multiple comparisons test): significantly active
